Laboratory results published in US20250223284A1, “REVERSIBLE DPP1 INHIBITORS AND USES THEREOF” (Insmed Incorporated, priority 2023, published 2025).

What follows are molecules tested against human DPP1 enzyme (Homo sapiens (Human), UniProt P53634) (assay: Human DPP1 Enzyme IC50 Assay). Details: recombinant human DPP1 activated with cathepsin L, H-Gly-Arg-AMC substrate, 10 min pre-incubation at 37° C., MES pH 6.0.
Assay type: biochemical
Experimental: Recombinant human DPP1 enzyme (R&D Systems; Minneapolis, MN) was first proteolytically processed into its mature form using recombinant human cathepsin L (R&D Systems) in a buffer consisting of 20 mM citric acid pH 4.5, 150 mM NaCl, 1 mM EDTA and 10 mM DTT. Test articles were applied to activated human DPP1 enzyme in Assay Buffer (25 mM MES pH 6.0, 50 mM NaCl, 5 mM DTT) in a total reaction volume of 125 μL. 25 μL of compound in Assay Buffer plus 5% DMSO was first added to 50 μL of activated human DPP1 enzyme at a concentration of 1 ng/μL and allowed to pre-incubate for 10 minutes at 37° C. after which 50 μL of 1000 μM H-Gly-Arg-AMC substrate (Bachem; St. Torrance, CA) was added, giving final substrate concentration of 400 µM and a final DMSO concentration of 1%. Substrate cleavage was measured for 90 minutes at 37° C., with fluorescence at Excitation/Emission 350/450 nm measured every 5 minutes. DPP1 concentration was interpolated based on its activity relative to a standard curve of activated human recombinant DPP1 enzyme. IC50 values for each compound were calculated via the XLFit (IDBS Version 5.3.1.3) Add-On to Microsoft Excel using the four parameter fit equation y={A+[(B−A)]/[1+((C/x)^D)]}, which appears as equation number 205 (4 Parameter Logistic Model or Sigmoidal Dose-Response Model) in XLFit. Default constraints were used for each Parameter. IC50 was defined as the compound concentration at which 50% of enzyme activity was inhibited when compared to the no-compound control.

Sequence of human DPP1 enzyme (P53634 25-134): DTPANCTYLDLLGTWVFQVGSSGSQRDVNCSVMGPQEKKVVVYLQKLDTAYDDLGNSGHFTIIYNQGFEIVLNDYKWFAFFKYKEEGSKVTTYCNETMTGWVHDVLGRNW
Sequence of human DPP1 enzyme (P53634 231-394): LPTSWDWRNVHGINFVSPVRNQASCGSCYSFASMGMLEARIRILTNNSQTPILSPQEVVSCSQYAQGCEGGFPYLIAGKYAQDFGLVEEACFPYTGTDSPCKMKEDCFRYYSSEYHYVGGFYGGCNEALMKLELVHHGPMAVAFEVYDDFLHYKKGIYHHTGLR
Sequence of human DPP1 enzyme (P53634 395-463): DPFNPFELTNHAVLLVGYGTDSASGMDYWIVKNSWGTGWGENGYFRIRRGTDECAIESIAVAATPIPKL

| IC50 [nM] | Compound |
| --- | --- |
| 15.8 ± 6.8 | Cn1c(=O)oc2ccc(-c3ccc(C[C@@H](C#N)NC(=O)C4CCCCCNC4)c(F)c3)cc21 (single isomer, unassigned) [drawing 548] |
| 314 ± 201 | Cn1c(=O)oc2ccc(-c3ccc(C[C@@H](C#N)NC(=O)[C@@H]4CNC[C@](C)(O)CO4)cc3)cc21 (single isomer, unassigned) [drawing 514] |
| 1680 | CCO[C@]1(C)CNC[C@@H](C(=O)N[C@H](C#N)Cc2ccc(-c3ccc4oc(=O)n(C)c4c3)cc2)OC1 (single isomer, unassigned) [drawing 552] |
| 25.1 ± 3.1 | Cn1c(=O)oc2ccc(-c3ccc(C[C@@H](C#N)NC(=O)[C@@H]4CNCCCCO4)cc3)cc21 (single isomer, unassigned) [drawing 513] |
| 13.6 ± 2.1 | Cn1c(=O)oc2ccc(-c3ccc(C[C@@H](C#N)NC(=O)[C@@H]4CNC[C@](C)(O)CO4)c(F)c3)cc21 (single isomer, unassigned) |
| 781 | Cn1c(=O)oc2ccc(-c3ccc(C[C@@H](C#N)NC(=O)[C@@H]4CNC[C@](O)(CO)CO4)cc3)cc21 (single isomer, unassigned) |
| 49.8 | Cn1c(=O)oc2ccc(-c3ccc(C[C@@H](C#N)NC(=O)[C@H]4CCCCCNC4)cc3)cc21 |
| 457 | CCO[C@H]1CCNC[C@@H](C(=O)N[C@H](C#N)Cc2ccc(-c3ccc4oc(=O)n(C)c4c3)cc2)OC1 (single isomer, unassigned) |
| 140 ± 59.3 | Cn1c(=O)oc2ccc(-c3ccc(C[C@@H](C#N)NC(=O)[C@H]4CCCCCNC4)c(F)c3)cc21 (single isomer, unassigned) [drawing 549] |
| > 5000 | CCC[C@]1(O)CNC[C@@H](C(=O)N[C@H](C#N)Cc2ccc(-c3ccc4oc(=O)n(C)c4c3)cc2)OC1 (single isomer, unassigned) |
| 23.2 ± 2 | Cn1c(=O)oc2ccc(-c3ccc(C[C@@H](C#N)NC(=O)[C@@H]4CNC[C@](C)(O)CCO4)cc3)cc21 (single isomer, unassigned) |
| > 5000 | CC(C)CO[C@]1(C)CNC[C@@H](C(=O)N[C@H](C#N)Cc2ccc(-c3ccc4oc(=O)n(C)c4c3)cc2)OC1 (single isomer, unassigned) |
| 85.6 ± 19.5 | Cn1c(=O)oc2ccc(-c3ccc(C[C@@H](C#N)NC(=O)C4CCCCCNC4)cc3)cc21 (stereo partly shown) [drawing 511] |
| 4.2 ± 0.8 | Cn1c(=O)oc2ccc(-c3ccc(C[C@@H](C#N)NC(=O)[C@@H]4CNCC5(CCO5)CO4)cc3)cc21 (single isomer, unassigned) [drawing 530] |
| 95.9 ± 4.4 | Cn1c(=O)oc2ccc(-c3ccc(C[C@@H](C#N)NC(=O)[C@@H]4CNCC5(CCCO5)CO4)cc3)cc21 (single isomer, unassigned) |
| 198 | Cn1c(=O)oc2ccc(-c3ccc(C[C@@H](C#N)NC(=O)[C@@H]4CNC[C@@H](O)CCO4)cc3)cc21 (single isomer, unassigned) |
| 74.7 | CO[C@H]1CCNC[C@@H](C(=O)N[C@H](C#N)Cc2ccc(-c3ccc4oc(=O)n(C)c4c3)cc2)OC1 (single isomer, unassigned) [drawing 547] |
| 603 | Cn1c(=O)oc2ccc(-c3ccc(C[C@@H](C#N)NC(=O)[C@@H]4CCCCCNC4)cc3)cc21 [drawing 550] |
| > 5000 | CC(C)CO[C@@]1(C)CNC[C@@H](C(=O)N[C@H](C#N)Cc2ccc(-c3ccc4oc(=O)n(C)c4c3)cc2)OC1 (single isomer, unassigned) |
| 3.04 ± 0.8 | Cn1c(=O)oc2ccc(-c3ccc(C[C@@H](C#N)NC(=O)[C@@H]4CNC[C@@]5(CCO5)CO4)cc3)cc21 (single isomer, unassigned) [drawing 532] |
| 6.82 ± 0.5 | CO[C@@H]1CCO[C@H](C(=O)N[C@H](C#N)Cc2ccc(-c3ccc4oc(=O)n(C)c4c3)cc2)CNC1 (single isomer, unassigned) [drawing 553] |
| 2740 | CC[C@]1(O)CNC[C@@H](C(=O)N[C@H](C#N)Cc2ccc(-c3ccc4oc(=O)n(C)c4c3)cc2)OC1 (single isomer, unassigned) [drawing 519] |
| 61.3 ± 9.9 | Cn1c(=O)oc2ccc(-c3ccc(C[C@@H](C#N)NC(=O)C4CCCCCNC4)cc3)cc21 (stereo partly shown) [drawing 512] |

| IC50 [nM] | Compound |
| --- | --- |
| 3750 | Cn1c(=O)oc2ccc(-c3ccc(C[C@@H](C#N)NC(=O)[C@@H]4CNCC(O)(C(F)(F)F)CO4)cc3)cc21 (single isomer, unassigned) |
| > 5000 | Cn1c(=O)oc2ccc(-c3ccc(C[C@@H](C#N)NC(=O)[C@@H]4CNCC(O)(Cc5ccccn5)CO4)cc3)cc21 (single isomer, unassigned) |
| 1140 | CO[C@H]1CCO[C@H](C(=O)N[C@H](C#N)Cc2ccc(-c3ccc4oc(=O)n(C)c4c3)cc2)CNC1 (single isomer, unassigned) |
| > 5000 | CCO[C@H]1CCO[C@H](C(=O)N[C@H](C#N)Cc2ccc(-c3ccc4oc(=O)n(C)c4c3)cc2)CNC1 (single isomer, unassigned) |
| 72.6 | Cn1c(=O)oc2ccc(-c3ccc(C[C@@H](C#N)NC(=O)C4CCCCCNC4)cc3)cc21 (stereo partly shown) [I-A] |
| 243 | Cn1c(=O)oc2ccc(-c3ccc(C[C@@H](C#N)NC(=O)[C@@H]4CNC[C@@](C)(O)CCO4)cc3)cc21 (single isomer, unassigned) |
| 27 | CCO[C@@H]1CCO[C@H](C(=O)N[C@H](C#N)Cc2ccc(-c3ccc4oc(=O)n(C)c4c3)cc2)CNC1 (single isomer, unassigned) |
| > 5000 | CCO[C@@]1(C)CNC[C@@H](C(=O)N[C@H](C#N)Cc2ccc(-c3ccc4oc(=O)n(C)c4c3)cc2)OC1 (single isomer, unassigned) [drawing 551] |
| 14.1 ± 3 | Cn1c(=O)oc2ccc(-c3ccc(C[C@@H](C#N)NC(=O)[C@@H]4CNC[C@@](C)(O)CO4)c(F)c3)cc21 (single isomer, unassigned) |
| 2240 | Cn1c(=O)oc2ccc(-c3ccc(C[C@@H](C#N)NC(=O)[C@@H]4CNCCC(C)(O)CO4)cc3)cc21 (single isomer, unassigned) |
| 729 | Cn1c(=O)oc2ccc(-c3ccc(C[C@@H](C#N)NC(=O)[C@@H]4CNC[C@]5(CCO5)CO4)cc3)cc21 (single isomer, unassigned) |
| > 5000 | CC(C)[C@]1(O)CNC[C@@H](C(=O)N[C@H](C#N)Cc2ccc(-c3ccc4oc(=O)n(C)c4c3)cc2)OC1 (single isomer, unassigned) [drawing 520] |
| 234 | Cn1c(=O)oc2ccc(-c3ccc(C[C@@H](C#N)NC(=O)[C@@H]4CNC[C@@](O)(CO)CO4)cc3)cc21 (single isomer, unassigned) |
| 230 | Cn1c(=O)oc2ccc(-c3ccc(C[C@@H](C#N)NC(=O)C4CCCC(O)CNC4)cc3)cc21 (single isomer, unassigned) |
| 30.9 ± 2 | CN1CC2(C1)OC(=O)c1ccc(-c3ccc(C[C@@H](C#N)NC(=O)[C@@H]4CNCCCCO4)cc3)cc12 (single isomer, unassigned) [drawing 536] |
| 25.1 | CC[C@@]1(O)CNC[C@@H](C(=O)N[C@H](C#N)Cc2ccc(-c3ccc4oc(=O)n(C)c4c3)cc2)OC1 (single isomer, unassigned) [drawing 518] |
| 1470 | C=C[C@]1(O)CNC[C@@H](C(=O)N[C@H](C#N)Cc2ccc(-c3ccc4oc(=O)n(C)c4c3)cc2)OC1 (single isomer, unassigned) |
| 17.4 ± 6 | CO[C@H]1CCNC[C@@H](C(=O)N[C@H](C#N)Cc2ccc(-c3ccc4oc(=O)n(C)c4c3)cc2)OC1 (single isomer, unassigned) [drawing 554] |
| 1020 | C=CCC1(O)CNC[C@@H](C(=O)N[C@H](C#N)Cc2ccc(-c3ccc4oc(=O)n(C)c4c3)cc2)OC1 (single isomer, unassigned) |
| 67.4 | Cn1c(=O)oc2ccc(-c3ccc(C[C@@H](C#N)NC(=O)[C@@H]4CNCC[C@H](O)CO4)cc3)cc21 (single isomer, unassigned) |
| 769 | CCC[C@@]1(O)CNC[C@@H](C(=O)N[C@H](C#N)Cc2ccc(-c3ccc4oc(=O)n(C)c4c3)cc2)OC1 (single isomer, unassigned) |
| 22.3 ± 2 | Cn1c(=O)oc2ccc(-c3ccc(C[C@@H](C#N)NC(=O)[C@@H]4CNCCCCO4)cc3)cc21 (single isomer, unassigned) [drawing 535] |
| 4.91 ± 0.9 | CCO[C@@H]1CCNC[C@@H](C(=O)N[C@H](C#N)Cc2ccc(-c3ccc4oc(=O)n(C)c4c3)cc2)OC1 (single isomer, unassigned) [drawing 544] |
